# Reference: patent publication US6057419A, “Cascade polymer complexes, process for producing the same and pharmaceuticals containing the same” (Schering Aktiengesellschaft, priority 1995, dated 2000)
# Legend:
# [1] = in vivo; cited from earlier work
# [2] = In vivo comparison with an extracellular contrast medium: blood concentrations and pharmacokinetics in rats (ICP-AES, Topfit program); conditions: rats (n=3), i.v.
# Description: The suitability of the compound described in Example 1l as a blood-pool agent is shown in the following test.
# As test animals, three male (Schering-SPF) rats that are 200-250 g in weight are used. 0.2 ml (respectively 25 mmol/L) of the following contrast medium solution per animal is administered intravenously: mixture of 1 part each of the compound of 1l, named compound 1 below, and the dysprosium complex of 3,6,9-triaza-3,6,9-tris(carboxymethyl)-undecanedioicacid (Dy-DTPA), named compound 2 below. Blood samples are taken with a catheter in the common carotid artery at the following times: 1, 3, 5, 10, 15, 20, 30, 45, 60, 90, 120 minutes p.i. In the blood samples obtained, the concentrations of gadolinium (Gd) and dysprosium (Dy) are measured with the aid of atomic emission spectrometry (ICP-AES) in each case in a parallel manner. The portion of the injected contrast medium of compound 1 (Gd) and compound 2 (Dy, comparison substance), remaining in the blood space, can be compared in the same animals by the different marking. The a- and b-half-lives, the volume of distribution as well as the total clearance can be calculated from the blood concentrations with the aid of special software (Topfit program).
# Measured blood concentrations of Gd (compound 1) and Dy (compound 2) in rats (n=3)
# [3] = excretion tests in rats; cited from earlier work
# [4] = cited from earlier work
molecule,measurement,setting,value
CC(O)CN1CCN(CC(=O)[O-])CCN(CC(=O)[O-])CCN(CC(=O)[O-])CC1.[Gd+3] (stereo not shown) [Pro Hance],dispersion space (entire extracellular space: intravascular space and interstitium),[1],about 20 % of the volume of the body
"dysprosium complex of 3,6,9-triaza-3,6,9-tris(carboxymethyl)-undecanedioicacid [Compound 2, reference compound]",Vd ss (volume of distribution),[2],0.41 ± 0.04 L/kg
same,α-t1/2,[2]; blood,1.5 ± 0.5 min
same,β-t1/2,[2]; blood,19.2 ± 2.5 min
CNC(=O)CN(CCN(CCN(CC(=O)[O-])CC(=O)NC)CC(=O)[O-])CC(=O)[O-].[Gd+3] [Omniscan],dispersion space (entire extracellular space: intravascular space and interstitium),[1],about 20 % of the volume of the body
COCC(=O)Nc1c(I)c(C(=O)NCC(O)CO)c(I)c(C(=O)N(C)CC(O)CO)c1I (stereo not shown) [Ultravist],dispersion space (entire extracellular space: intravascular space and interstitium),[1],about 20 % of the volume of the body
polylysine-GdDTPA,excretion (in words),[3],excreted unchanged by glomerular filtration through the kidneys
CNC[C@H](O)[C@@H](O)[C@H](O)[C@H](O)CO.CNC[C@H](O)[C@@H](O)[C@H](O)[C@H](O)CO.O=C([O-])CN(CCN(CC(=O)[O-])CC(=O)O)CCN(CC(=O)[O-])CC(=O)O.[Gd+3] [Magnevist],dispersion space (entire extracellular space: intravascular space and interstitium),[1],about 20 % of the volume of the body
albumin-GdDTPA,concentration in the liver tissue,[4]; 24 h after intravenous injection in rats,~30 % of the dose
same,dose eliminated,"[4]; in 24 hours, rats, i.v.",20 % of the dose
